Assay results from patent publication US10421718B2, “EBNA1 inhibitors and their method of use” (priority 2013, dated 2019).

Biological target: T1, His-EBNA1 (DNA binding domain of EBNA1, amino acids 459-607) (Epstein-Barr virus, UniProt P03211)
T1 construct: made in house; host or cells: E. coli
Experiment: Inhibition of 5′-biotin-oPL4624 binding to His-EBNA1 using Alpha Screen technology
Details: Alpha Screen Activity (IC50, inhibition of 5′-biotin-oPL4624 binding to His-EBNA1), 15 nM His-EBNA1, 0.2 nM bt-oPL4624, 2 hr room temperature
Summary of the method: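 AlphaScreen signal (680 nm ex, 570 nm em) after a 2-h room-temperature incubation, normalized to no-EBNA1 (100% inhibition) and EBNA1 (0%) values and fit to a one-site curve. Final conditions: 15 nM His-EBNA1 (aa 459-607), 0.2 nM bt-oPL4624, Tris pH 7.2 buffer with 160 mM NaCl, compound 3.2 nM to 100 μM.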

T1 sequence (P03211 459-607): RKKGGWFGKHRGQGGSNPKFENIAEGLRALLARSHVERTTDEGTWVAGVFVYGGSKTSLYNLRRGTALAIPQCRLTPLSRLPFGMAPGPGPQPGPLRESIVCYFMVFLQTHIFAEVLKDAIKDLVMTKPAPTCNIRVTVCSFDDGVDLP

Structure (SMILES)	IC50 [µM]
O=C(O)c1cccc(C#CCN2CCCC2)c1-c1ccccc1 [Entry 160, 2-phenyl-3-[3-(pyrrolidin-1-yl)prop-1-yn-1-yl]benzoic acid]	10 to 100
O=C(O)c1cccc(C#CCO)c1-c1ccccc1 [Entry 161, 3-(3-hydroxyprop-1-yn-1-yl)-2-phenylbenzoic acid]	100 to 1000
NCc1cccc(C#Cc2cccc(C(=O)O)c2-n2cccc2)c1 [Entry 162, 3-{2-[3-(Aminomethyl)phenyl]ethynyl}-2-(1H-pyrrol-1-yl)benzoic acid]	1 to 10
O=C(O)c1cccc(C#Cc2cccc(CNS(=O)(=O)c3cc(F)cc(F)c3)c2)c1-n1cccc1 [Entry 163, 3-{2-[3-(3,5-difluorobenzenesulfonamidomethyl)phenyl]ethynyl}-2-(1H-pyrrol-1-yl)benzoic acid]	1 to 10
Cc1ncc(S(=O)(=O)NCc2ccc(C#Cc3cccc(C(=O)O)c3-n3cccc3)cc2)n1C [Entry 164]	1 to 10
O=C(O)c1cccc(C#Cc2cccc(CNS(=O)(=O)C3CC3)c2)c1-n1cccc1 [Entry 165, 3-{2-[3-(cyclopropanesulfonamidomethyl)phenyl]ethynyl}-2-(1H-pyrrol-1-yl)benzoic acid]	< 1
COc1cccc(-c2c(C#Cc3c[nH]c4ncccc34)cccc2C(=O)O)c1 [Entry 166, 2-(3-methoxyphenyl)-3-(2-{1H-pyrrolo[2,3-b]pyridin-3-yl}ethynyl)benzoic acid]	10 to 100
Cn1ncc2ccc(-c3c(C#Cc4c[nH]c5ncccc45)cccc3C(=O)O)cc21 [Entry 167, 2-(1-methyl-1H-indazol-6-yl)-3-(2-{1H-pyrrolo[2,3-b]pyridin-3-yl}ethynyl)benzoic acid]	10 to 100
Cc1nc2cc(-c3c(C#Cc4c[nH]c5ncccc45)cccc3C(=O)O)ccc2s1 [Entry 168, 2-(2-methyl-1,3-benzothiazol-5-yl)-3-(2-{1H-pyrrolo[2,3-b]pyridin-3-yl}ethynyl)benzoic acid]	10 to 100
Cn1ncc2ccc(-c3c(C#Cc4cscn4)cccc3C(=O)O)cc21 [Entry 170]	1 to 10
Cn1ccc2cc(-c3c(C#Cc4cscn4)cccc3C(=O)O)ccc21 [Entry 171]	1 to 10
O=C(O)c1cccc(C#Cc2cscn2)c1-c1ccncc1 [Entry 172]	10 to 100
Cc1nc2cc(-c3c(C#Cc4cscn4)cccc3C(=O)O)ccc2s1 [Entry 173]	10 to 100
O=C(O)c1cccc(C#Cc2ccncc2)c1-c1c[nH]c2ccccc12 [Entry 174, 2-(1H-indol-3-yl)-3-[2-(pyridin-4-yl)ethynyl]benzoic acid]	1 to 10
CN(C)c1ccc(-c2c(C#Cc3ccncc3)cccc2C(=O)O)cc1 [Entry 175, 2-[4-(dimethylamino)phenyl]-3-[2-(pyridin-4-yl)ethynyl]benzoic acid]	10 to 100
CN1CCOc2cc(-c3c(C#Cc4ccncc4)cccc3C(=O)O)ccc21 [Entry 176, 2-(4-methyl-3,4-dihydro-2H-1,4-benzoxazin-7-yl)-3-[2-(pyridin-4-yl)ethynyl]benzoic acid]	10 to 100
O=C(O)c1cccc(C#Cc2ccncc2)c1-c1ccccc1 [Entry 177, 2-phenyl-3-[2-(pyridin-4-yl)ethynyl]benzoic acid]	100 to 1000
O=C(O)c1cccc(C#Cc2cc(C(=O)O)c3cc[nH]c3c2)c1 [Entry 178, 6-(3-carboxy-phenylethynyl)-1H-indole-4-carboxylic acid]	1 to 10
NC(=O)c1cc(C#Cc2cccc(C(=O)O)c2)cc2[nH]ccc12 [Entry 179, 3-(4-carbamoyl-1H-indol-6-ylethynyl)-benzoic acid]	1 to 10

Structure (SMILES)	IC50 [µM]
NC(=O)c1cccc(C#Cc2cccc(C(=O)O)c2)c1 [Entry 180, 3-(3-carbamoyl-phenylethynyl)-benzoic acid]	< 1
O=C(O)c1cccc(C#Cc2cn(S(=O)(=O)c3ccccc3)c3ccccc23)c1 [Entry 181, 3-(1-benzenesulfonyl-1H-indol-3-ylethynyl)-benzoic acid]	10 to 100
O=C(O)c1cccc(C#Cc2c[nH]c3ccccc23)c1 [Entry 182, 3-(1H-indol-3-ylethynyl)-benzoic acid]	10 to 100
COC(=O)c1cccc(C#Cc2cccc(C(=O)O)c2)c1 [Entry 183, 3-(3-carboxy-phenylethynyl)-benzoic acid methyl ester]	100 to 1000
COc1cc(C#Cc2cccc(C(=O)O)c2)cc(C(N)=O)c1 [Entry 184, 3-(3-carbamoyl-5-methoxy-phenylethynyl)-benzoic acid]	10 to 100
COc1ccc(-c2c(C#Cc3ccncc3)cccc2C(=O)O)cc1O [Entry 185, 3′-hydroxy-4′-methoxy-6-pyridin-4-ylethynyl-biphenyl-2-carboxylic acid]	100 to 1000
COc1cc(O)cc(-c2c(C#Cc3ccncc3)cccc2C(=O)O)c1 [Entry 186, 5′-hydroxy-3′-methoxy-6-pyridin-4-ylethynyl-biphenyl-2-carboxylic acid]	10 to 100
O=C(O)c1cccc(C#Cc2ccncc2)c1-c1cc[nH]n1 [Entry 187, 2-(1H-pyrazol-3-yl)-3-pyridin-4-ylethynyl-benzoic acid]	10 to 100
O=C(O)c1cccc(C#Cc2ccncc2)c1-c1cn[nH]c1 [Entry 188, 2-(1H-pyrazol-4-yl)-3-pyridin-4-ylethynyl-benzoic acid]	100 to 1000
Cc1noc(C)c1-c1c(C#Cc2ccncc2)cccc1C(=O)O [Entry 189, 2-(3,5-dimethyl-isoxazol-4-yl)-3-pyridin-4-ylethynyl-benzoic acid]	10 to 100
Cc1nn(C)c(C)c1-c1c(C#Cc2ccccc2)cccc1C(=O)O [Entry 190, 3-phenylethynyl-2-(1,3,5-trimethyl-1H-pyrazol-4-yl)-benzoic acid]	100 to 1000
Cc1ccc(C)n1-c1c(C#CC(C)(C)O)cccc1C(=O)O [Entry 191, 2-(2,5-dimethyl-pyrrol-1-yl)-3-(3-hydroxy-3-methyl-but-1-ynyl)-benzoic acid]	10 to 100
Cc1ccc(C)n1-c1c(C#Cc2ccncc2)cccc1C(=O)O [Entry 192, 2-(2,5-dimethyl-pyrrol-1-yl)-3-pyridin-4-ylethynyl-benzoic acid]	10 to 100
Cc1ccc(C)n1-c1c(C#Cc2cccc(C(N)=O)c2)cccc1C(=O)O [Entry 193, 3-(3-carbamoyl-phenylethynyl)-2-(2,5-dimethyl-pyrrol-1-yl)-benzoic acid]	1 to 10
Cc1ccc(C)n1-c1c(C#Cc2cccc(C(=O)O)c2)cccc1C(=O)O [Entry 194, 3-(3-carboxy-phenylethynyl)-2-(2,5-dimethyl-pyrrol-1-yl)-benzoic acid]	< 1
Cc1ccc(C)n1-c1c(C#Cc2cccc(CO)c2)cccc1C(=O)O [Entry 195, 2-(2,5-dimethyl-pyrrol-1-yl)-3-(3-hydroxymethyl-phenylethynyl)-benzoic acid]	10 to 100
Cc1ccc(C)n1-c1c(C#Cc2c[nH]c3ncccc23)cccc1C(=O)O [Entry 196, 2-(2,5-dimethyl-pyrrol-1-yl)-3-(1H-pyrrolo[2,3-b]pyridin-3-ylethynyl)-benzoic acid]	1 to 10
Cc1ccc(C)n1-c1c(C#CC(O)c2ccccc2)cccc1C(=O)O (stereo not shown) [Entry 197, 2-(2,5-dimethyl-pyrrol-1-yl)-3-(3-hydroxy-3-phenyl-prop-1-ynyl)-benzoic acid]	10 to 100
